Experimental data from patent publication US20100021420A1, “COMBINATIONS OF PYRAZOLE DERIVATIVES FOR THE INHIBITION OF CDKS AND GSK'S” (ASTEX THERAPEUTICS LIMITED, priority 2006, published 2010).
Values belong to the compound of their own block, whether it stands above or below them.

Columns and labels:
[1] = antitumour agent; cited from earlier work
SkBR3 cell line = experiment: IC50 shift assay (combination), SkBR3 cells; assay type: cell-based
HCT116 cell line = experiment: IC50 shift assay (combination), HCT116 cells; assay type: cell-based
A2780 cells = experiment: IC50 shift assay (combination), A2780 cells; assay type: cell-based
[2] = tested on: Human colon carcinoma cell line HT29; experiment: IC50 shift assay (combination), HT29 cells; assay type: cell-based; conditions: concurrent 72 hours, camptothecin 24 hours then Compound I 48 hours, or Compound I prior to camptothecin
Protocol: Human colon carcinoma cell line HT29 (ECACC No. 91072201) cells were seeded onto 96-well tissue culture plates at a concentration of 5×10^3 cells/well. Cells were allowed to recover overnight prior to addition of compound(s) or vehicle control (0.2% DMSO) as follows;
Compounds were added according to one of the following schedules; • a) Concurrent for 72 hours. • b) Compound I for 24 hours followed by camptothecin for 48 hours. • c) Camptothecin for 24 hours followed by Compound I for 48 hours.
Following a total of 72 hours compound incubation, Alamar Blue™ was added to a final concentration of 10% (v/v) and incubated at 37° C. for 6 hours. Fluorescent product was quantified by reading at d535/25× (excitation) and d590/20 m (emission) on a Fusion Reader (Perkin Elmer). The IC50 for camptothecin in the presence of varying doses of Compound I was determined.

[3] = tested on: human colon carcinoma cell line HCT 116; experiment: Anti-proliferative activity, HCT-116 cell line; assay type: cell-based; conditions: HCT 116 (ECACC No. 91091005)
Excerpt: See Example 15 of WO 2006/077426 at pages 100-101 (which is incorporated herein by reference).

OVCAR-3 tumour cells = conditions: in which PKB is amplified, concentrations of 50 and 100 microM; cited from earlier work
PKC = conditions: cited from earlier work
[4] = mice; doses 10 times more than were needed for antitumour activity; cited from earlier work
[5] = Thermogravimetric analysis; assay type: physicochemical
Protocol: Approximately 5 mg of sample (accurately weighed) was placed into a platinum TGA pan and loaded into a TGA 7 gravimetric analyser. The sample under study was then heated at a rate of 10° C./min (from ambient to 300° C.) and the resulting change in weight monitored. A dry nitrogen purge gas at a flow rate of 20 ml/min was used to produce an inert atmosphere and prevent oxidation of the sample during heating. Prior to analysis the instrument was weight calibrated using a 100 mg reference standard and temperature calibrated using an Alumel reference standard (using the Curie point transition temperature).

[6] = Vapour sorption/desorption analysis; assay type: physicochemical
Protocol: Approximately 20 mg of sample was placed into a wire-mesh vapour sorption balance pan and loaded into an ‘IgaSorp’ vapour sorption balance (Hiden Analytical Instruments) held at 25+/−0.1° C. The sample was then dried by maintaining a 0% humidity environment (using mass flow control apparatus) until no further weight change was recorded. Subsequently, the sample was then subjected to a ramping profile from 0-90% relative humidity (% RH) at 10% RH increments, maintaining the sample at each step until equilibration had been attained (99.5% step completion).
Upon reaching equilibration, the % RH within the apparatus was ramped to the next step and the equilibration procedure repeated. After completion of the sorption cycle, the sample was then dried using the same procedure. The weight change during the sorption/desorption cycles was then monitored, allowing for the hygroscopic nature of the sample to be determined.

[7] = tested on: Acute Promyelocytic Leukemia (APL); conditions: cited from earlier work
[8] = tested on: P-glycoprotein-overexpressing subline of leukemic cell line CCRF-CEM; conditions: cited from earlier work
CLL = conditions: initial therapy, symptomatic CLL patients, cited from earlier work

Compound: CCN[C@H]1CO[C@@H](O[C@H]2[C@H](O[C@H]3C#C/C=C\C#C[C@]4(O)CC(=O)C(NC(=O)OC)=C3/C4=C\CSSSC)O[C@H](C)[C@@H](NO[C@H]3C[C@H](O)[C@H](SC(=O)c4c(C)c(I)c(O[C@@H]5O[C@@H](C)[C@H](O)[C@@H](OC)[C@H]5O)c(OC)c4OC)[C@@H](C)O3)[C@@H]2O)C[C@@H]1OC [Calicheamicin]
potency relative to adriamycin [1]: over 1,000 times

effect of combination with Paclitaxel in IC50 shift assay (A2780 cells; Paclitaxel 24 h followed by Compound I 48 h): synergy | effect of combination with 5-FU in IC50 shift assay (A2780 cells; added concurrently for 72 h): mildly synergistic | effect of combination with Iressa in IC50 shift assay (A2780 cells; added concurrently for 72 h): synergistic | effect of combination with Paclitaxel in IC50 shift assay (A2780 cells; added concurrently for 72 h): Additive | effect of combination with Cisplatin in IC50 shift assay (A2780 cells; concurrently for 72 h or Cisplatin 24 h followed by compound I 48 h): additive | effect of combination with Etoposide in IC50 shift assay (A2780 cells; concurrently for 72 h or Etoposide 24 h followed by compound I 48 h): additive | effect of combination with Gemcitibine in IC50 shift assay (A2780 cells; concurrently for 72 h or Gemcitibine 24 h followed by Compound I 48 h): additive | effect of combination with Vinblastine in IC50 shift assay (A2780 cells; concurrently for 72 h or Vinblastine 24 h followed by compound I 48 h): additive | effect of combination with camptothecin in IC50 shift assay [2]: additive
Compound: O=C(NC1CCNCC1)c1n[nH]cc1NC(=O)c1c(Cl)cccc1Cl [Compound I, 4-(2,6-dichloro-benzoylamino)-1H-pyrazole-3-carboxylic acid piperidin-4-ylamide]
effect of combination with Iressa (synergy) confirmed (SkBR3 cell line): confirmed | effect of combination with Iressa (synergy) confirmed (HCT116 cell line): confirmed

IC50 [3]: < 20 µM
Compound: O=C(NC1CCNCC1)c1n[nH]cc1NC(=O)c1c(Cl)cccc1Cl [Example 1]

Compound: O=S(=O)(NCCNCC=C(c1ccccc1)c1ccccc1)c1cccc2cnccc12 [NL-71-101]
apoptosis (OVCAR-3 tumour cells): induced apoptosis | IC50 (PKC): 104 µM

Compound: CCOC(=O)c1ccc2[nH]c3c(OC)c4[nH]c5ccc(C(=O)OCC)cc5c4cc3c2c1 [SR-13668]
adverse effects [4]: no adverse effects

significant event (thermally induced partial degradation) in TGA plot ([5]; onset prior to the main melt transition): about 288 °C | mass loss (TGA) ([5]; up to 150° C., crystals from Example 5 Step 8): approximately 0.2% | weight loss during initial drying ([6]; 0% RH, 25 °C): approximately 0.01% | total weight increase ([6]; upon equilibration at 90% RH, 25 °C): 0.24%
Compound: CS(=O)(=O)N1CCC(NC(=O)c2n[nH]cc2NC(=O)c2c(Cl)cccc2Cl)CC1 [Set B Example 1, 4-(2,6-dichloro-benzoylamino)-1H-pyrazole-3-carboxylic acid (1-methanesulphonyl-piperidin-4-yl)-amide]
hygroscopicity / hydrate formation ([6]; storage in elevated humidity conditions): physically stable with regard to hygroscopicity

Compound: CC1=C(/C=C/C(C)=C/C=C/C(C)=C/C(=O)O)C(C)(C)CCC1 [Tretinoin]
remissions in APL patients [7]: 64-100%

Compound: C/C1=C/C[C@@H](/C(C)=C/c2csc(C)n2)OC(=O)C[C@H](O)C(C)(C)C(=O)[C@H](C)[C@@H](O)[C@@H](C)CCC1 [desoxyepothilone B]
IC50 [8]: 0.017 µM

Compound: Nc1nc(F)nc2c1ncn2[C@@H]1O[C@H](CO)[C@@H](O)[C@@H]1O [fludarabine, 9-β-D-arabinofuranosyl-2-fluoro-adenine]
rate of complete responses (CLL; v 3% with alkylator-based therapies): 27% | duration of progression-free survival (CLL; v 17 months with alkylator-based therapies): 33 months
